Literature values as cited in patent publication US20150098993A1, “COMPOSITIONS, PROCESS OF PREPARATION OF SAID COMPOSITIONS AND METHOD OF TREATING INFLAMMATORY DISEASES” (priority 2011, published 2015).

Assays:
[1] = system: mice; details: in mice
[2] = not given; remark: listed apart in the source
[3] = in vivo
[4] = not given; remark: listed apart in the source
[5] = system: DBA/1 mice; details: DBA/1 mice immunized with bCII/CFA; Dalbeth
[6] = target: T1, AT1 receptor (Homo sapiens, UniProt P30556); details: AT1 vs AT2 receptor
T1 sequence (P30556 1-359): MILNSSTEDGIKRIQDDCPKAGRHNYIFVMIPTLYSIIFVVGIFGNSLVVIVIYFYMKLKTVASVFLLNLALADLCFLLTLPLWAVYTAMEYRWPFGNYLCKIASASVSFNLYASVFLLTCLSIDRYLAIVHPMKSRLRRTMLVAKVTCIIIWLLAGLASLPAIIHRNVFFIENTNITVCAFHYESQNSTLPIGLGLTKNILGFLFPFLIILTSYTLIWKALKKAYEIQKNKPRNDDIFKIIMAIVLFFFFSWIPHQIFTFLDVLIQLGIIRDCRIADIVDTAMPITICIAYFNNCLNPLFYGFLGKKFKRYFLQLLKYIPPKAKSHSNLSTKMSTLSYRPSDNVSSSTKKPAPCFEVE

[7] = system: male BALB/c mice; details: apremilast 5 and 25 mg/kg, dexamethasone 1 mg/kg; daily, oral; McCann

Question: With `O=C(Nc1c(Cl)cncc1Cl)c1ccc(OC(F)F)c(OCC2CC2)c1` [CW304, 3-(cyclopropylmethoxy)-N-(3,5-dichloropyridin-4-yl)-4-(difluoromethoxy)benzamide] as the compound, how does the maximum tolerated dose [1] read?
Answer: Its maximum tolerated dose is 2 mg/kg.

Question: And the Cmax (in vivo)?
Answer: The Cmax was 7.04 µg/mL.

Question: What about the T½ (in vivo) of the same compound?
Answer: Its T½ is 12 to 14 h.

Question: And the absolute bioavailability (in vivo)?
Answer: The absolute bioavailability was 79%.

Question: And the solubility in acetone ([2]; acetone)?
Answer: The solubility in acetone was “freely soluble”.

Question: What about the solubility in ethanol ([2]; ethanol) of the same compound?
Answer: Its solubility in ethanol is “sparingly soluble”.

Question: What about the “side effects of therapy” value [3] of the same compound?
Answer: Its value is “gastrointestinal (GI) events including nausea, diarrhea, and weight loss”.

Question: Which maximum tolerated dose [1] does the source give for `CCOC(=O)[C@H](CCc1ccccc1)N[C@@H](C)C(=O)N1Cc2ccccc2C[C@H]1C(=O)O` [Quinapril, (3S)-2-[(2S)-2-{[(2S)-1-ethoxy-1-oxo-4-phenylbutan-2-yl]amino}propanoyl]-1,2,3,4-tetrahydroisoquinoline-3-carboxylic acid] here?
Answer: Its maximum tolerated dose is 25 mg/kg.

Question: And the “time of peak plasma concentration” value (following oral administration)?
Answer: The value was “within one hour”.

Question: And the T½ (in vivo)?
Answer: Its T½ is 13 h.

Question: And the extent of absorption (in vivo)?
Answer: Its extent of absorption is “at least 60%”.

Question: What about the half-life (in vivo) of the same compound?
Answer: The half-life was 2 h.

Question: What about the “half-life, prolonged terminal phase” value (terminal phase) of the same compound?
Answer: Its value is 25 h.

Question: And the protein binding [4]?
Answer: Its protein binding is “about 97%”.

Question: What about the “severity of collagen-induced arthritis” value [5] of the same compound?
Answer: The value was “reduced the severity”.

Question: And the “solubility in aqueous solvents” value ([2]; aqueous solvents)?
Answer: Its value is “freely soluble”.

Question: Which results are given for `CCCc1nc(C(C)(C)O)c(C(=O)OCc2oc(=O)oc2C)n1Cc1ccc(-c2ccccc2-c2nnn[nH]2)cc1` [(5-methyl-2-oxo-2H-1,3-dioxol-4-yl)methyl 4-(2-hydroxypropan-2-yl)-2-propyl-1-({4-[2-(2H-1,2,3,4-tetrazol-5-yl)phenyl]phenyl}methyl)-1H-imidazole-5-carboxylate]?
Answer: maximum tolerated dose [1]: 25 mg/kg; T½ (in vivo): 13 h; half-life (in vivo): about 13 hours; penetration of red blood cells (in vivo): does not penetrate red blood cells; protein binding [4]: 99%; greater affinity for the AT1 receptor than for the AT2 receptor [6]: > 12,500 fold; solubility in methanol ([2]; methanol): sparingly soluble; solubility in water ([2]; water): practically insoluble; side effects of therapy [3]: dehydration (dry mouth, excessive thirst, muscle pain or cramps, nausea and vomiting, weakness), dizziness, low blood pressure, and slow or irregular heartbeat

Question: With `CCOc1cc([C@@H](CS(C)(=O)=O)N2C(=O)c3cccc(NC(C)=O)c3C2=O)ccc1OC` [Apremilast, (S)-N-{2-[1-(3-Ethoxy-4-methoxyphenyl)-2-methanesulfonylethyl]-1,3-dioxo-2,3-dihydro-1H-isoindol-4-yl}acetamide] as the compound, how does the “arthritis severity, as measured by clinical score” value [7] read?
Answer: Its value is “significantly suppressed arthritis severity”.

Question: For `Cc1ccc(NC(=O)c2ccc(CN3CCN(C)CC3)cc2)cc1Nc1nccc(-c2cccnc2)n1` [Imatinib, N-(4-methyl-3-{[4-(pyridin-3-yl)pyrmidin-2-yl]amino}phenyl)-4-[(4-methylpiperazin-1-yl)methyl]benzamide], which Tmax (in vivo) is on record?
Answer: Its Tmax is 1.2 h.

Question: And the “maximum levels achieved after dosing (time)” value (in vivo)?
Answer: The value was 2 to 4 h.

Question: Which absolute bioavailability (in vivo) does the source give for `CCCc1nc(C(C)(C)O)c(C(=O)OCc2oc(=O)oc2C)n1Cc1ccc(-c2ccccc2-c2nnn[nH]2)cc1` [Olmesartan medoxomil] here?
Answer: Its absolute bioavailability is “about 26%”.
